The values that follow come from ChEMBL document CHEMBL1125700, “Conformational properties of semirigid antipsychotic drugs: the pharmacophore for dopamine D-2 antagonist activity” (J Med Chem, 1991).

Each structure is given as a SMILES string. Values joined by “and” are separate entries in the source; they are usually repeats but may differ in a detail not shown here. Equal values may be shown once.

Experiment [1] addresses Muscarinic acetylcholine receptor. Description: The compound was tested for binding affinity against muscarinic acetylcholine receptor using QNB as radioligand. Type of experiment: protein assay.
In experiment [2] the target is T1, D(2) dopamine receptor (Homo sapiens, UniProt P14416). Kind of experiment: The compound was tested for binding affinity against dopamine receptor D2 using raclopride as radioligand.
The target in experiment [3] is T2, Sigma non-opioid intracellular receptor 1 (Homo sapiens, UniProt Q99720). Description: The compound was tested for binding affinity against sigma receptor using DTG as radioligand.
Experiment [4] addresses T3, Alpha-1A adrenergic receptor (Homo sapiens, UniProt P35348).
T3 sequence (P35348 whole entry): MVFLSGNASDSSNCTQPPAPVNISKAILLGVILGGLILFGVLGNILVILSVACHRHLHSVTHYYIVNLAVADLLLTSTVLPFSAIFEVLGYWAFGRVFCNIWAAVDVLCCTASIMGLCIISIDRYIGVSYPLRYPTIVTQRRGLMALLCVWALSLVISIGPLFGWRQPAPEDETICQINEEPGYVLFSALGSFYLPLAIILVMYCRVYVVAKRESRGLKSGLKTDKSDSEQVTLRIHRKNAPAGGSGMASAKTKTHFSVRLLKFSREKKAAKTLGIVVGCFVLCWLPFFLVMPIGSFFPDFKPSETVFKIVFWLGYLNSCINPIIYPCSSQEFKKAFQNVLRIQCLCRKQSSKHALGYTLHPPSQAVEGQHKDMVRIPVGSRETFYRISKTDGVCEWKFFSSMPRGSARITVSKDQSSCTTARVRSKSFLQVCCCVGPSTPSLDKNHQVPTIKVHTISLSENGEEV
Description: The compound was tested for binding affinity against Alpha-1 adrenergic receptor using WB-4101 as radioligand.

The target of experiment [5] is Serotonin 2 (5-HT2) receptor (Homo sapiens, UniProt P41595+P28223+P28335). Kind of experiment: The compound was tested for binding affinity against 5-hydroxytryptamine 2 receptor using ketanserin as radioligand. Type of experiment: protein assay.
Experiment [6] has as its target T4, D(1A) dopamine receptor (Homo sapiens, UniProt P21728). Kind of experiment: Binding affinity determined in radioreceptor binding assay by using [3H]SCH-23390 radioligand against dopamine receptor D1.
The target in experiment [7] is Muscarinic acetylcholine receptor. Kind of experiment: The compound was tested for binding affinity against Muscarinic acetylcholine receptor using QNB as radioligand. The experiment is classed as protein assay.
Experiment [8] addresses T4, D(1A) dopamine receptor. Description: The compound was tested for binding affinity against Dopamine receptor D1 using SCH-23390 as radioligand.
For experiment [9], the target named is T2, Sigma non-opioid intracellular receptor 1. Kind of experiment: The compound was tested for binding affinity against Sigma opioid receptor using DTG as radioligand.
Experiment [10] concerns the target T1, D(2) dopamine receptor. Kind of experiment: The compound was tested for binding affinity against Dopamine receptor D2 using raclopride as radioligand.

T2 sequence (Q99720 whole entry): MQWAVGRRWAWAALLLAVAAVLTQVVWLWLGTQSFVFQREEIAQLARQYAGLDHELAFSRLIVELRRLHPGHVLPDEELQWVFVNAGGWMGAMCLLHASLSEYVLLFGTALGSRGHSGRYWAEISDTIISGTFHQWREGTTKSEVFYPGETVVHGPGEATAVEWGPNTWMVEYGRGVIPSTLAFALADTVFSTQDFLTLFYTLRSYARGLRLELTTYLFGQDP
T4 sequence (P21728 whole entry): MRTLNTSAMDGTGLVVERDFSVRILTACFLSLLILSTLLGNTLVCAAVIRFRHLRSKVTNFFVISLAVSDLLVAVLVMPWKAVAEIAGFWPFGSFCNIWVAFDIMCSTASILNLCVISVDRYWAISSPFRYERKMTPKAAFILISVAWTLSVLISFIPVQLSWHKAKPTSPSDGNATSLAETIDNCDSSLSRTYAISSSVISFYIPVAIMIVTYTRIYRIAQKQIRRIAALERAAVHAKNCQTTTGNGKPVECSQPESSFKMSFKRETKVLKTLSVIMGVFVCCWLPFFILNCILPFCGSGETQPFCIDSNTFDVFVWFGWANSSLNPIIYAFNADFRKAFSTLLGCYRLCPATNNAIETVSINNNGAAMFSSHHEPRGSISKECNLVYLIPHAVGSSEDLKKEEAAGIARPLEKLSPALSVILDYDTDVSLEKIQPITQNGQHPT
T1 sequence (P14416 whole entry): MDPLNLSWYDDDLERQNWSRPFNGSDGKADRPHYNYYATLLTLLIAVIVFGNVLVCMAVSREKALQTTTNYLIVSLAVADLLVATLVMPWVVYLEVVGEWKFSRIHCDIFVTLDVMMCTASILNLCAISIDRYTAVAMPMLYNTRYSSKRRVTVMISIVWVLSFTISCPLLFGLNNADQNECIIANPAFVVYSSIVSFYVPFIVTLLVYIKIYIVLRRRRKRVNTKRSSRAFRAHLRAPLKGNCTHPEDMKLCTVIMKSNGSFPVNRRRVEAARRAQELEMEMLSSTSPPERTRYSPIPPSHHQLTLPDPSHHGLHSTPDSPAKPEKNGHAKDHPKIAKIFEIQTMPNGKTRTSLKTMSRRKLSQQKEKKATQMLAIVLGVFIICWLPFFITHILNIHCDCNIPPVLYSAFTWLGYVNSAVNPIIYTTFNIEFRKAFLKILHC

What is called Ki is the equilibrium dissociation constant of an inhibitor or competing ligand from its target. A high value points to a looser hold on the target. In the case of `CN(C)C1C=CC2(CC1)c1ccccc1C=Cc1ccc(Cl)cc12` (centres undefined), the Ki came to 4.3 nM in [1]; 0.66 nM on D(2) dopamine receptor [2]; 1600 nM in [3]; 36 nM in experiment [4]; 1 nM in experiment [5]; 0.3 nM on D(1A) dopamine receptor [6].
Turning to `CN(C)C1C=CC2(CC1)c1ccccc1CCc1ccc(Cl)cc12` (centres undefined), the Ki was 94 nM and 43 nM in experiment [1]; 550 nM and 1400 nM in [3].
Take `CN(C)C1C=CC2(CC1)c1ccccc1C=Cc1ccc(Cl)cc12` (single isomer, unassigned; enantiomer 2): the Ki in experiment [7] is 7.2 nM; at D(1A) dopamine receptor [8] it was 3.1 nM; in [9], 800 nM; at D(2) dopamine receptor [10], 6.5 nM; in [4], 61 nM; in experiment [5], 1.3 nM.
